In US20250381307A1, “RETRO-AAV AND USE IN TREATING NEURODEGENERATIVE DISEASES” (priority 2023, published 2025):

Columns and labels:
rM3Ds = molecular target: T1, rM3Ds (Rattus norvegicus, UniProt P08483, A177S/A238G/A489L/DEL261-437/DEL441-478/E258S/I253V/I483M/INS256[…]/K178L/K182A/K255R/K484R/K486H/L173F/L482A/M480V/R171S/R176Q/R179M/S481M/T174R/T181R/T257A/Y148C); experiment: In vivo electrophysiological recording in caudate/putamen of MPP+ lesioned macaques; set-up: rM3Ds; 2A-EYFP (C); host or cells: AAV8R12-transduced striatal D1-MSNs of mice and cynomolgus macaques (in vivo and acute slices)
T1 sequence (P08483 with tags, fused parts or gaps Y148C/R171S/L173F/T174R/R176Q/A177S/K178L/R179M/T181R/K182A/A238G/I253V/K255R/INS256[…]/T257A/E258S/DEL261-437/DEL441-478/M480V/S481M/L482A/I483M/K484R/K486H/A489L): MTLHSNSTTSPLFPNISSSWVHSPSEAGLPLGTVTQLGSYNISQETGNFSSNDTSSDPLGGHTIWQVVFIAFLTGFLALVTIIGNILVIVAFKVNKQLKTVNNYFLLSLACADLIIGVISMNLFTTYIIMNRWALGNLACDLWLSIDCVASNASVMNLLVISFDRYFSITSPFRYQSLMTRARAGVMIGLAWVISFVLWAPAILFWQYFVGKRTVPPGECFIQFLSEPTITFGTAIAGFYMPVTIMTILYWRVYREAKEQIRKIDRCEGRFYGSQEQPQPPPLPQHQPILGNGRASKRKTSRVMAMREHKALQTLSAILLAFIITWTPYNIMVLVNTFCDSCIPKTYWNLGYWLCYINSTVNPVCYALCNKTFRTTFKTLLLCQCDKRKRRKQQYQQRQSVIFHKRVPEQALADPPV
Experimental: Electrophysiological recording was performed through a recording chamber while the monkey was anesthetized. Neural responses were recorded by a 16-channel linear probe (Plexon Inc, Uprobe) driven by a mechanical microdrive (Alpha Omega, FlexMT). Signals were passed through a head stage (Plexon Inc, HST/16V-G20 LN) and then split and filtered between 300 Hz and 5 kHz to identify spiking activity with an amplifier system (Plexon Inc, OmniPlex). Detected spikes were then sorted by commercially available software (Plexon Inc, Offline Sorter) for further analysis. To quantify the effect of CNO/DCZ injection, neural activity was recorded for 60 minutes following CNO/DCZ injection. The response time-course for each channel was obtained by counting the spikes within every 10-minute window and then normalizing to the maximal.
To determine the effect of CNO/DCZ injection on the direction of signal change, we performed Pearson correlation between neural responses and time using the ‘corr’ function in Matlab, which generates the correlation coefficient ‘r’ and significant level ‘p’. A neuron was considered to have “Increased” activity when r>0 and p<0.05; and considered to have “Decreased” activity when r<0 and p<0.05. Otherwise, neurons were considered to be “Unchanged” in their neural activities. The responses of all increased neurons were then averaged after being normalized by the maximal response (Crowe et al., 2014; Dai and Wang, 2018; Hirokawa et al., 2019) following CNO/DCZ injection, and then plotted as a function of time to generate the normalized population response.

hM3Dq = hM3Dq (Homo sapiens, UniProt P20309, A239G/Y149C); experiment: Rotation behavior and nigral c-Fos in mice after unilateral nigral AAV8R12-G88P3-HA-hM3Dq and CNO; assay type: in vivo, C57BL/6J mice; set-up: host or cells: AAV8R12-transduced neurons (striatal D1-MSNs, some SNr neurons) of mice and macaques; details: for rotation behavior (FIG. 6C): control vector AAV8R12-G88P3-EYFP, n=5
Sequence of hM3Dq (P20309 whole entry Y149C/A239G): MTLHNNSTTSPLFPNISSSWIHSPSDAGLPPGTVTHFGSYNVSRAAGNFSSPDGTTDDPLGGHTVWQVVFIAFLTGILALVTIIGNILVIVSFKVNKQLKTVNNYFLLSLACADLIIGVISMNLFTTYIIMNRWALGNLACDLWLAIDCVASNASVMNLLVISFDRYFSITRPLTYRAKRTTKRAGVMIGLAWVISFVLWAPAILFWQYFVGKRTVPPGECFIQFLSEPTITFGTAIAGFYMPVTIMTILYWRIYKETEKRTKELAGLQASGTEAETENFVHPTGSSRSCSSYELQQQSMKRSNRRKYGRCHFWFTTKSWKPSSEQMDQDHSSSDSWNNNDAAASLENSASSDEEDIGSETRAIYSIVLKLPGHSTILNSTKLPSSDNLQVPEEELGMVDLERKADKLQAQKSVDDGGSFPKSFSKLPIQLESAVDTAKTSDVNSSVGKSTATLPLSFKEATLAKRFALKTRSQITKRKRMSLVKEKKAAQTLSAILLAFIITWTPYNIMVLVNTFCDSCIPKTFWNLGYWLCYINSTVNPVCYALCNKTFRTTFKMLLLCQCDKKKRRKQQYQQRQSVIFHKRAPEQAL
Experimental: Mice were anesthetized with sodium pentobarbital (Nembutal; 80 mg/kg, i.p.), and then placed into a stereotaxic device (KOPF). Eye cream was applied on both corneas to avoid dehydration. The skull above the targeted areas was thinned with a dental drill and carefully removed. Injections were conducted with a 10 μL syringe connected to a 33-Gauge needle (Neuros; Hamilton), using a microsyringe pump (Legato 130, KD Scientific). A total volume of 200 nL virus was injected into the SNr at a speed of 20 nL/min. The coordinates for the SNr were 3.4 mm posterior, 1.3 mm lateral, 4.8 mm ventral to the bregma.
Mice that were used in the behavioral experiments were then implanted with guide cannulas (KOPF) unilaterally aiming at the dorsomedial striatum (0.5 mm anterior, 1.5 mm lateral, 3.5 mm ventral to the bregma). The cannulas were fixed to the skull with dental cement. Stainless steel obturators were inserted into the guide cannulas and were replaced every other day to maintain the patency until infusions were made. Mice were allowed to recover from the surgery for at least 3 weeks before further studies.
Mice were individually handled for 10-20 seconds per day for at least 5 days to habituate them to the experimenter. The open field test was conducted in a test apparatus (50 cm×50 cm×50 cm) with an HD digital camera (Sony) positioned above the arena. On day one, mice were habituated to the apparatus for 10 minutes. On day 2, mice were administrated saline (0.1 mL i.p. or 200 nL intracranially [i.e.] through the guide cannulas). On day 3, mice were administrated with Clozapine-N-oxide (CNO, Hello Bio, HB1807; 0.3 mg/kg i.p. or 200 nL at 100 μM i.e.). All behavioral tests were conducted 30 minutes after injection. During the test, mice were allowed to freely explore the apparatus for 10 minutes. The behavioral data were analyzed with ANY-maze software (Stoelting Co.).

C[N+]1([O-])CCN(C2=Nc3cc(Cl)ccc3Nc3ccccc32)CC1 [CNO, clozapine N-oxide]
caudate/putamen cells activated (FIG. 15G) (rM3Ds; CNO 36 cells, DCZ 31 cells, saline 17.9%): 52.8% | caudate/putamen cells inactivated (FIG. 15G) (rM3Ds; saline 33.4%): 13.9% | caudate/putamen cells unchanged (FIG. 15G) (rM3Ds; saline 48.7%): 33.3% | rotations (FIG. 6A; ipsiversive rotations induced) (hM3Dq; CNO i.p., AAV8R12-G88P3-HA-hM3Dq, n=8 mice, mean±SEM, saline 45.25±4.128): 87.84±4.666 | rotation behavior (FIG. 6C) (hM3Dq; CNO i.p., saline 47.08±10.5): 44.72±10.89 | rotations (FIG. 6A; contraversive rotations induced) (hM3Dq; CNO intracranial into dorsomedial striatum, AAV8R12-G88P3-HA-hM3Dq, n=8, saline 49.63±5.879): 15.08±3.435 | nigral c-Fos+ cells (hM3Dq; CNO intracranial, hM3Dq): No significant changes in the number of nigral c-Fos+ cells | rotation behavior (FIG. 6C) (hM3Dq; CNO intracranial, saline 54.22±8.766): 61.39±5.774 | c-Fos+ cells in the right SNr (hM3Dq; CNO intraperitoneal, hM3Dq): significant increase in c-Fos+ cells
